Reference: US12691095B2, “Modulators of TNF-alpha activity” (Forward Therapeutics, Inc., priority 2024, dated 2026)

molecular target: T1, TNF-α (Homo sapiens, UniProt P01375); test: TNF-α Induced HEK Blue Cellular Assay; assay type: cell-based; details: HEK Blue TNFα reporter cells stimulated with TNF-α, 24 hrs, secreted alkaline phosphatase (QUANTI-Blue, 620 nm)
T1 construct: purchased R&D 210-TA-020/CF
Method: (§1) Test articles were diluted in DMSO and serially diluted into 384 well assay plate (Corning 3765), at final concentrations ranging from […] to 0.5 nM. HEK Blue™ TNFα reporter cells were added at a final density of 10,000 cell per well in assay media [DMEM (Gibco, cat #21063-029), 10% fetal bovine serum (ExcelBio, cat #FND500), 1% Penicillin-Streptomycin (Solarbio, cat #P1400-100]. TNF-α (R&D 210-TA-020/CF) was then added to the assay plate at a final concentration of […]. This plate was then incubated for 24 hrs at 37° C. and 5% CO2. Secreted alkaline phosphatase expression was then measured using QUANTI- Blue™ (Invivogen), according to manufacturer instructions and read on an Envision microplate reader at 620 nm.
(§2) Inhibition data for test compound over a range of concentration was plotted as percentage inhibition of the test compound (100%=maximum inhibition). IC50 values were determined after correcting for background [(sample read-mean of low control)/(mean of high control-mean of low control)] where by the low control is DMSO without stimulation and high control is DMSO with stimulation. The IC50 is defined as the concentration of test compound which produces 50% inhibition and was quantified using the 4 parameter logistic equation to fit the data.

T1 sequence (P01375 77-233 limits assumed): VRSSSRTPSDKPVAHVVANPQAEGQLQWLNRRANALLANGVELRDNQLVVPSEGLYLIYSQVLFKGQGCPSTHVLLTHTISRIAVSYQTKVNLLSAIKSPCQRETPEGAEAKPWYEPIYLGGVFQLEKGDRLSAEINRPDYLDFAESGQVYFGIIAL

| SMILES | IC50 [µM] |
| --- | --- |
| [2H]C([2H])([2H])N1C(=O)c2cccc(Cl)c2[C@H]2C[C@@H]1c1nc3ccc(-c4ccc(P(C)(C)=O)cc4F)cc3n12 [Example 8, (7R,14R)-1-chloro-11-(4-(dimethylphosphoryl)-2-fluorophenyl)-6-(methyl-d3)-6,7-dihydro-7,14-methanobenzo[f]benzo[4,5]imidazo[1,2-a][1,4]diazocin-5(14H)-one] | ≤ 0.1 |
| [2H]C([2H])([2H])N1C(=O)c2cccc(F)c2[C@H]2C[C@@H]1c1nc3ccc(-c4ccc(P(C)(C)=O)c(F)c4)cc3n12 [Example 9, (7R,14R)-11-(4-(dimethylphosphoryl)-3-fluorophenyl)-1-fluoro-6-(methyl-d3)-6,7-dihydro-7,14-methanobenzo[f]benzo[4,5]imidazo[1,2-a][1,4]diazocin-5(14H)-one] | ≤ 0.1 |
| [2H]C([2H])([2H])C([2H])([2H])N1C(=O)c2cccc(Cl)c2[C@H]2C[C@@H]1c1nc3ccc(-c4ccc(P(C)(C)=O)c(F)c4)cc3n12 [Example 10, (7R,14R)-1-chloro-11-(4-(dimethylphosphoryl)-3-fluorophenyl)-6-(ethyl-d5)-6,7-dihydro-7,14-methanobenzo[f]benzo[4,5]imidazo[1,2-a][1,4]diazocin-5(14H)-one] | ≤ 0.1 |
| CCN1C(=O)c2cccc(Cl)c2[C@H]2C[C@@H]1c1nc3ccc(-c4ccc(P(C)(C)=O)c(F)c4)cc3n12 [Example 11, (7R,14R)-1-chloro-11-(4-(dimethylphosphoryl)-3-fluorophenyl)-6-ethyl-6,7-dihydro-7,14-methanobenzo[f]benzo[4,5]imidazo[1,2-a][1,4]diazocin-5(14H)-one] | ≤ 0.1 |
| [2H]C([2H])([2H])N1C(=O)c2cccc(F)c2[C@H]2C[C@@H]1c1nc3ccc(-c4cc(F)c(P(C)(C)=O)cc4F)cc3n12 [Example 12, (7R,14R)-11-(4-(dimethylphosphoryl)-2,5-difluorophenyl)-1-fluoro-6-(methyl-d3)-6,7-dihydro-7,14-methanobenzo[f]benzo[4,5]imidazo[1,2-a][1,4]diazocin-5(14H)-one] | ≤ 0.1 |

molecular target: T1, TNF-α; test: TNF-α Induced THP 1 dual Cellular Assay; assay type: cell-based; details: THP1 dual cell reporter cells stimulated with TNF-α, 24 hrs, secreted alkaline phosphatase (QUANTI-Blue, 620 nm)
Method: as §1, with “THP1 dual cell” for “HEK Blue™ TNFα”, “QUANTI-Blue™” for “QUANTI- Blue™”
as §2, with “whereby” for “where by”, “4-parameter” for “4 parameter”

| SMILES | IC50 [µM] |
| --- | --- |
| [2H]C([2H])([2H])N1C(=O)c2cccc(F)c2[C@H]2C[C@@H]1c1nc3ccc(-c4cc(F)c(P(C)(C)=O)cc4F)cc3n12 [Example 12, (7R,14R)-11-(4-(dimethylphosphoryl)-2,5-difluorophenyl)-1-fluoro-6-(methyl-d3)-6,7-dihydro-7,14-methanobenzo[f]benzo[4,5]imidazo[1,2-a][1,4]diazocin-5(14H)-one] | ≤ 0.1 |
